According to patent US20060025390A1, “Treatment of hormone allergy and related symptoms and disorders” (priority 2004, published 2006):

Assays:
[1] = test system: serum IgG anti-17-α-hydroxyprogesterone antibodies; experiment: ELISA binding of IgG 17-α-hydroxyprogesterone antibodies to different hormones in solid phase; set-up: species or system human; conditions: for IgG binding (optical density): hormone in solid phase, 405 nm; for IgG % reaction: relative to 17-α-hydroxyprogesterone = 100
Procedure: (§1) The ELISA inhibition method was used to determine specificity and cross-reactivity between different hormones and to ensure the degree of human IgG, IgM and IgE estrogen or progesterone binding to estrogen or progesterone in solid phase. […] 100 μl of sera from three different patients with high IgG, IgM or IgE antibodies against 17-α-hydroxyprogesterone was added to all wells. After shaking and incubation for 1 hr at room temperature, addition of enzyme labeled anti-human IgG, IgM or IgE, repeat of incubation, washing, and addition of substrate, color development was measured at 405 nm. Results were calculated as percentage of anti-17-α-hydroxyprogesterone binding to 17-α-hydroxyprogesterone and other hormones. Also, anti-estrogen binding to estrogen and other hormones in solid phase by progesterone in liquid phase was performed and calculated in a similar manner.
(§2) Human sera containing 17-α-hydroxyprogesterone IgG-, IgM- and IgE-binding antibodies were reacted against progesterone, estrogen, hydrocortisone and cholesterol. In comparison to 100% binding of anti-17-α-hydroxyprogesterone-binding to 17-α-hydroxyprogesterone, the IgG anti-17-α-hydroxyprogesterone-binding to progesterone, estrogen, hydrocortisone and cholesterol was 69-77%, 25-30%, 39-53%, and less than 10% respectively (Table 4). The % binding of serum IgM and IgE anti-17-α-hydroxyprogesterone to 17-1-hydroxyprogesterone, progesterone, estrogen, hydrocortisone and cholesterol was similar to the binding of IgG. This binding of anti-17-α-hydroxyprogesterone to progesterone was the highest, followed by hydrocortisone, then estrogen, to almost no binding with cholesterol. Similar to this, human sera with IgG, IgM and IgE binding antibodies against estrogen were reacted with progesterone, 17-α-hydroxyprogesterone, hydrocortisone and cholesterol, in the presence of estrogen.

[2] = test system: serum IgM anti-estrogen antibodies; experiment: ELISA binding of IgM estrogen antibodies to different hormones in solid phase; set-up: species or system human; conditions: for IgM binding (optical density): hormone in solid phase, 405 nm; for IgM % reaction: relative to estrogen = 100
Procedure: as §1, §2

[3] = test system: patients experiencing hormone allergy symptoms; experiment: Clinical responses of hormone allergy symptoms to intradermal dilute progesterone (or estrogen); assay type: in vivo, human; conditions: for % of Patients who Respond: any relief of symptom; for % Improvement in Responding Patients: average of patients' estimates
Source text: Patients experiencing several hormone allergy symptoms experienced relief when administered dilute doses of progesterone either sublingually or intradermally.
The symptoms measured were irritation or pain in the neck, nose, eyes, throat, ear, skin, back, hips, upper extremities and lower extremities, headache, and shortness of breath. […]
Patients were designated as responding patients in Table 1 if they experienced any relief of the indicated symptom. Patients were also asked to estimate the amount of improvement in the symptom, an average of which is
In Table 2 the probability that positive results (i.e. patients responding to treatment) were due to random effects was calculated using standard statistical analysis of patient tests. It was assumed that if the treatment has no effect, there is a 50% chance that a patient will indicate a positive response and a 50% chance that a patient will indicate a negative response. From this assumption, coupled with the actual data, one may calculate the probability that positive responses are due to an actual effect of the treatment and not simply random effects. In general, results with a less than 1% chance of being random are considered highly significant. Results with a less than 5% chance of being random are normally conclusively labeled as nonrandom. Thus, the results observed for most of the symptoms in Table 2 are highly significant, with only the results for ear irritation and pain falling merely in the nonrandom category.
Hormone samples may be prepared in any way suitable for the intended administration route. For administration through intradermal injection, samples may be prepared as they were in the studies of Examples 2 and 3. Specifically, the progesterone was formulated from commercially available injectable progesterone. Each ml of the final formulation contained […] of progesterone and 10% benzyl alcohol as a preservative in sesame oil. 0.1 ml was administered per patient intradermally. Estrogen samples were similarly prepared.

[4] = test system: serum IgM anti-17-α-hydroxyprogesterone antibodies; experiment: ELISA binding of IgM 17-α-hydroxyprogesterone antibodies to different hormones in solid phase; set-up: species or system human; conditions: for IgM binding (optical density): hormone in solid phase, 405 nm; for IgM % reaction: relative to 17-α-hydroxyprogesterone = 100
Procedure: as §1, §2

[5] = test system: serum IgE anti-17-α-hydroxyprogesterone antibodies; experiment: ELISA binding of IgE 17-α-hydroxyprogesterone antibodies to different hormones in solid phase; set-up: species or system human; conditions: for IgE binding (optical density): hormone in solid phase, 405 nm; for IgE % reaction: relative to 17-α-hydroxyprogesterone = 100
Procedure: as §1, §2

[6] = Back, of 58 patients with symptom (Table 2)
[7] = Ear, of 35 patients with symptom (Table 2)
[8] = Eyes, of 94 patients with symptom (Table 2)
[9] = Headache, of 105 patients with symptom (Table 2)
[10] = Hips, of 26 patients with symptom (Table 2)
[11] = Lower Extremity, 0.5 mg intradermally
[12] = Lower Extremity, of 51 patients with symptom (Table 2)
[13] = Neck, of 146 patients with symptom (Table 2)
[14] = Nose, of 112 patients with symptom (Table 2)
[15] = Shortness of Breath, 0.5 mg intradermally
[16] = Shortness of Breath, of 144 patients with symptom (Table 2)
[17] = Skin, of 35 patients with symptom (Table 2)
[18] = Throat, of 94 patients with symptom (Table 2)
[19] = Upper Extremity, 0.5 mg intradermally
[20] = Upper Extremity, of 63 patients with symptom (Table 2)

CC(=O)[C@H]1CC[C@H]2[C@@H]3CCC4=CC(=O)CC[C@]4(C)[C@H]3CC[C@]12C [Progesterone, progesterone]
IgG anti-17-α-hydroxyprogesterone binding ([1]; in comparison to 100% binding to 17-α-hydroxyprogesterone, over three sera): 69-77% | IgG binding (optical density) ([1]; sample 1): 1.1 | IgG % reaction ([1]; sample 1): −69% | IgG binding (optical density) ([1]; sample 2): 0.73 | IgG % reaction ([1]; sample 2): −77% | IgG binding (optical density) ([1]; sample 3): 0.49 | IgG % reaction ([1]; sample 3): −72% | IgM binding (optical density) ([2]; sample 1): 0.26 | IgM % reaction ([2]; sample 1): −29% | IgM binding (optical density) ([2]; sample 2): 0.65 | IgM % reaction ([2]; sample 2): −31% | IgM binding (optical density) ([2]; sample 3): 0.44 | IgM % reaction ([2]; sample 3): −34% | % of Patients who Respond ([3]; Back, 0.5 mg intradermally): 82% | % Improvement in Responding Patients ([3]; Back, 0.5 mg intradermally): 72% | # of Responding Patients ([3]; Back, 0.5 mg intradermally, of 57 patients (Table 1)): 47 | # of Responding Patients [3, 6]: 48 | # of non-Responding Patients [3, 6]: 10 | % of Patients who Respond ([3]; Ear, 0.5 mg intradermally): 66% | % Improvement in Responding Patients ([3]; Ear, 0.5 mg intradermally): 25% | # of Responding Patients ([3]; Ear, 0.5 mg intradermally, of 35 patients (Table 1)): 23 | # of Responding Patients [3, 7]: 23 | # of non-Responding Patients [3, 7]: 12 | % of Patients who Respond ([3]; Eyes, 0.5 mg intradermally): 81% | % Improvement in Responding Patients ([3]; Eyes, 0.5 mg intradermally): 57% | # of Responding Patients ([3]; Eyes, 0.5 mg intradermally, of 90 patients (Table 1)): 73 | # of Responding Patients [3, 8]: 75 | # of non-Responding Patients [3, 8]: 19 | % of Patients who Respond ([3]; Headache, 0.5 mg intradermally): 82% | % Improvement in Responding Patients ([3]; Headache, 0.5 mg intradermally): 69% | # of Responding Patients ([3]; Headache, 0.5 mg intradermally, of 103 patients (Table 1)): 84 | # of Responding Patients [3, 9]: 85 | # of non-Responding Patients [3, 9]: 20 | % of Patients who Respond ([3]; Hips, 0.5 mg intradermally): 92% | % Improvement in Responding Patients ([3]; Hips, 0.5 mg intradermally): 79% | # of Responding Patients ([3]; Hips, 0.5 mg intradermally, of 26 patients (Table 1)): 24 | # of Responding Patients [3, 10]: 24 | # of non-Responding Patients [3, 10]: 2 | % of Patients who Respond [3, 11]: 79% | % Improvement in Responding Patients [3, 11]: 76% | # of Responding Patients ([3]; Lower Extremity, 0.5 mg intradermally, of 61 patients (Table 1)): 48 | # of Responding Patients [3, 12]: 43 | # of non-Responding Patients [3, 12]: 8 | % of Patients who Respond ([3]; Neck, 0.5 mg intradermally): 72% | % Improvement in Responding Patients ([3]; Neck, 0.5 mg intradermally): 62% | # of Responding Patients ([3]; Neck, 0.5 mg intradermally, of 144 patients (Table 1)): 104 | # of Responding Patients [3, 13]: 106 | # of non-Responding Patients [3, 13]: 40 | % of Patients who Respond ([3]; Nose, 0.5 mg intradermally): 82% | % Improvement in Responding Patients ([3]; Nose, 0.5 mg intradermally): 63% | # of Responding Patients ([3]; Nose, 0.5 mg intradermally, of 109 patients (Table 1)): 89 | # of Responding Patients [3, 14]: 92 | # of non-Responding Patients [3, 14]: 20 | % of Patients who Respond [3, 15]: 87% | % Improvement in Responding Patients [3, 15]: 67% | # of Responding Patients ([3]; Shortness of Breath, 0.5 mg intradermally, of 142 patients (Table 1)): 124 | # of Responding Patients [3, 16]: 126 | # of non-Responding Patients [3, 16]: 18 | % of Patients who Respond ([3]; Skin, 0.5 mg intradermally): 79% | % Improvement in Responding Patients ([3]; Skin, 0.5 mg intradermally): 74% | # of Responding Patients ([3]; Skin, 0.5 mg intradermally, of 34 patients (Table 1)): 27 | # of Responding Patients [3, 17]: 27 | # of non-Responding Patients [3, 17]: 8 | % of Patients who Respond ([3]; Throat, 0.5 mg intradermally): 76% | % Improvement in Responding Patients ([3]; Throat, 0.5 mg intradermally): 64% | # of Responding Patients ([3]; Throat, 0.5 mg intradermally, of 92 patients (Table 1)): 70 | # of Responding Patients [3, 18]: 71 | # of non-Responding Patients [3, 18]: 23 | % of Patients who Respond [3, 19]: 80% | % Improvement in Responding Patients [3, 19]: 75% | # of Responding Patients ([3]; Upper Extremity, 0.5 mg intradermally, of 50 patients (Table 1)): 40 | # of Responding Patients [3, 20]: 50 | # of non-Responding Patients [3, 20]: 13 | effectiveness in relieving hormone allergy symptoms compared to several other antigens ([3]; dilute doses sublingually or intradermally): most effective | IgM binding (optical density) ([4]; sample 1): 0.8 | IgM % reaction ([4]; sample 1): −61% | IgM binding (optical density) ([4]; sample 2): 0.79 | IgM % reaction ([4]; sample 2): −77% | IgM binding (optical density) ([4]; sample 3): 0.72 | IgM % reaction ([4]; sample 3): −78% | IgE binding (optical density) ([5]; sample 1): 0.94 | IgE % reaction ([5]; sample 1): −65% | IgE binding (optical density) ([5]; sample 2): 1.7 | IgE % reaction ([5]; sample 2): −71% | IgE binding (optical density) ([5]; sample 3): 0.82 | IgE % reaction ([5]; sample 3): −77%
